SMILES strings stand for the structures.

Broadly, the IC50 is the concentration needed to halve the response being measured.

For the experiment, the system named is TLR9. Nature of the experiment: TLR9-induced IFNalpha in isolated human pDCs (CpG2216, AlphaLISA). Type of experiment: cell-based. The settings on record: read-out: TLR9-ligand induced IFNα in human pDCs IC50. As to the method: 2.4 Determination of TLR9-Induced IFNalpha in Human Peripheral Blood Mononuclear Cells (PBMCs) and Isolated Plasmacytoid Dendritic Cells (pDCs)
Human PBMCs were prepared using Buffy Coats as source material from healthy donations (approx. 50 ml obtained from Blutspendezentrum SRK Basel) and processed as indicated above. […]
Compounds were pre-diluted in 100% v/v DMSO (#41640-100 mL; Sigma-Aldrich), followed by transfer in Media (to achieve a final DMSO concentration of 0.25%). […] Plates were briefly centrifuged (200×g for 2 min at 22° C.) and supernatant samples (30 μl) removed for quantification of IFNα levels.
For quantification of IFNalpha the human interferon AlphaLISA Kit (#AL264F) from PerkinElmer was used. […] After incubation, the plates were read with an EnVision™ multiplate reader equipped with the ALPHA option using the instrument's own “AlphaScreen standard settings” (e.g. total measurement time: 550 ms, Laser 680 nm excitation time: 180 ms, mirror: D640 as, emission filter: M570w, center wavelength 570 nm, bandwidth 100 nm, transmittance 75%). Data were collected for analysis and quantification of IFNα levels.
Data were analysed using Excel XL fit 4.0 (Microsoft) with XLfit add-in (IDBS; version 4.3.2). Specific IFNα concentrations were determined following extrapolation to standard curves using human IFNα B (2b). […]
(Bead proximity is the source of the signal in Alpha formats.)

As for `CCC(=O)N1CC[C@H](Nc2ncnc3c2CN(c2cnc(OC)c(C(F)(F)F)c2)CC3)C1` [Example 67, 1-{(S)-3-[6-(6-Methoxy-5-trifluoromethyl-pyridin-3-yl)-5,6,7,8-tetrahydro-pyrido[4,3-d]pyrimidin-4-ylamino]-pyrrolidin-1-yl}-propan-1-one], the IC50 worked out at 33 nM.

(Values after US9949979B2, “Use of inhibitors of the activity or function of PI3K” (NOVARTIS AG, priority 2011, dated 2018).)
